# Measurements as given in article PMC7898822, “RNA‐PROTACs: Degraders of RNA‐Binding Proteins” (Angewandte Chemie (International Ed. in English), 2020).
# Columns and labels:
# myc-Lin28A = experiment: Ubiquitination assay of myc-Lin28A in 22Rv1 cells; type: cell-based; details: HA-Ub co-transfected, 500 nM, 48 h, anti-HA western blot after cMyc IP
# Experimental: Next, we investigated the ability of ORN3P1 and ORN7P1 to mediate ubiquitination of Lin28 in cells, using a previously described protocol. ^[32] Cells from the prostate cancer cell line 22RV1, which express very low levels of Lin28, were co‐transfected with two plasmids expressing pCMV‐myc‐Lin28A and HA‐tagged polyubiquitin (HA‐Ub).
# After 48 h of incubation with ORN3P1 and ORN7P1, the tagged Lin28 (and the control QKI) was immunoprecipitated using an anti‐Myc antibody. The isolated protein was then analyzed by western blotting using the anti‐HA and anti‐c‐Myc antibodies. Consistent with other previously described PROTAC reagents,[ ^32 , ^33 ]
# (§1) The protein extracts (12-17 µg) were run on a 4-20% SDS-PAGE and transferred on a nitrocellulose blotting membrane 0.22 µm (GE Healthcare) using the Trans-Blot transfer device (Biorad). Membranes were blocked with 5% milk and incubated with the primary antibody overnight at 4 °C. Membranes were washed with 0.05% PBS-T and reacted with the secondary antibody for 1 h in 5% milk. The proteins were detected using the anti-lin28a antibody (Cell Signaling technology, D9F5), anti-lin28b antibody (Cell Signaling technology, 4196S), anti-rbfox1 (NovusBio, NBP2-13169SS), at 1:1000 and anti-hrnp c antibody […]
# (Abcam, AB133607) at 1:10000 dilutions. […]
# (§2) on a ChemiDoc MP imager (Biorad). The intensity of the signal was quantified using the ImageJ-Fiji software. […]
# Lin28A = experiment: Pull-down RNA ELISA, gymnosis, anti-Lin28A; type: cell-based, human; details: 3'-biotin conjugates, K562 cells, 2 µM, 24 h; streptavidin plate; vs mock or FUS antibody
# From the text: Humans express two paralogs of the protein, LIN28 (Lin28A) and LIN28B (Lin28B), that play key roles in development, metabolism, and pluripotency. ^[34] Lin28 proteins are abundantly expressed during embryonic development, as well as in several tumors and tumor‐derived cell lines. ^[35] […] In order to confirm that RNA‐PROTACs bind to endogenous Lin28 in cells, we performed a pull‐down RNA ELISA assay that we have previously described. ^[36] Thus, we conjugated a biotin group to the 3′ ends of ORN3P1 and ORN7P1 and added these reagents separately on to myelogenous leukemia K562 cells. We incubated lysates from treated cells on streptavidin‐coated plates so as to capture the RNA‐PROTACs present in the cell lysates. We then assayed for the presence of Lin28A in the plates using an anti‐Lin28A antibody and a negative control anti‐FUS antibody. […]
# as §1, with “Membranes were blocked with 5% milk and incubated with the primary antibody overnight at 4 °C. Membranes were washed with 0.05% PBS-T and reacted with the secondary antibody for 1 h in 5% milk.” left out
# as §2
# K562 cells = experiment: Confocal microscopy, intracellular localization in K562 cells; type: cell-based, human; details: FAM labelled ORN3P1, 1 µM, 24 h
compound,measurement,setting,value
CC[C@H](C)[C@H](NC(=O)[C@H](Cc1ccc(O)cc1)NC(=O)[C@@H]1C[C@@H](O)CN1C(=O)[C@H](C)NC(=O)[C@H](CC(C)C)NC(=O)CCCCCNC(=O)[C@@H](N)CSC1CC(=O)N(CCOP(=O)(S)OC[C@H]2O[C@@H](n3cnc4c(N)ncnc43)[C@H](OCCOC)[C@@H]2OP(=O)(S)OC[C@H]2O[C@@H](n3cnc4c(=O)[nH]c(N)nc43)[C@H](OCCOC)[C@@H]2OP(=O)(S)OC[C@H]2O[C@@H](n3cnc4c(=O)[nH]c(N)nc43)[C@H](OCCOC)[C@@H]2OP(=O)(S)OC[C@H]2O[C@@H](n3cnc4c(N)ncnc43)[C@H](OCCOC)[C@@H]2OP(=O)(S)OC[C@H]2O[C@@H](n3cnc4c(=O)[nH]c(N)nc43)[C@H](OCCOC)[C@@H]2OP(=O)(S)OC[C@H]2O[C@@H](n3cnc4c(N)ncnc43)[C@H](OCCOC)[C@@H]2OP(=O)(S)OC[C@H]2O[C@@H](n3cc(C)c(=O)[nH]c3=O)[C@H](OCCOC)[C@@H]2O)C1=O)C(=O)O (stereo partly drawn) [ORN3P1],ubiquitination of myc-Lin28A,myc-Lin28A,showed a smear on the gel towards higher molecular weight
same,Lin28A pull-down signal,Lin28A,strong signal for Lin28A protein
same,intracellular presence by confocal microscopy,K562 cells,in the cytoplasm and nuclei of K562 cells
